Data: PubChem BioAssay AID248 (DTP/NCI, 2004)
Where “and” joins values, the source holds several entries; their conditions need not be identical. Equal values may be shown once. Toxic doses and inconclusive results are not listed. No stated cut-off is given here; in the data, active means T/C of 150% or more; inactive means T/C below 125%.

Tested on: L1210 leukemia ip in BDF1 mice, survival T/C
Test: NCI In Vivo Anticancer Drug Screen. Data for tumor model L1210 Leukemia (intraperitoneal) in B6D2F1 (BDF1) mice
Details: endpoint: mean survival time, higher = longer survival
Method in brief: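 Tumor cells were implanted, animals were treated, and survival was followed. The result divides the treated measurement by the vehicle-control measurement.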

[1] = dose: 100.0 mg/kg/injection, schedule: Q04DX003 (ip), vehicle: Klucel (hydroxypropylcellulose) (HPC)
[2] = dose: 200.0 mg/kg/injection, schedule: Q04DX003 (ip), vehicle: Klucel (hydroxypropylcellulose) (HPC)
[3] = dose: 50.0 mg/kg/injection, schedule: Q04DX002 (ip), vehicle: Klucel (hydroxypropylcellulose) (HPC)
[4] = dose: 100.0 mg/kg/injection, schedule: Q01DX009 (ip), vehicle: Klucel (hydroxypropylcellulose) (HPC)
[5] = dose: 100.0 mg/kg/injection, schedule: Q04DX002 (ip), vehicle: Klucel (hydroxypropylcellulose) (HPC)
[6] = dose: 100.0 mg/kg/injection, schedule: Q04DX003 (ip), vehicle: saline with Tween-80
[7] = dose: 200.0 mg/kg/injection, schedule: Q04DX003 (ip), vehicle: saline with Tween-80
[8] = dose: 400.0 mg/kg/injection, schedule: Q04DX003 (ip), vehicle: saline with Tween-80
[9] = dose: 200.0 mg/kg/injection, schedule: Q01DX009 (ip), vehicle: Klucel (hydroxypropylcellulose) (HPC)
[10] = dose: 100.0 mg/kg/injection, schedule: Q04DX002 (ip), vehicle: saline
[11] = dose: 200.0 mg/kg/injection, schedule: Q04DX002 (ip), vehicle: saline
[12] = dose: 400.0 mg/kg/injection, schedule: Q04DX002 (ip), vehicle: saline
[13] = dose: 50.0 mg/kg/injection, schedule: Q01DX009 (ip), vehicle: saline with Tween-80
[14] = dose: 100.0 mg/kg/injection, schedule: Q01DX009 (ip), vehicle: saline with Tween-80
[15] = dose: 100.0 mg/kg/injection, schedule: Q04DX002 (ip), vehicle: saline with Tween-80
[16] = dose: 200.0 mg/kg/injection, schedule: Q01DX009 (ip), vehicle: saline with Tween-80
[17] = dose: 200.0 mg/kg/injection, schedule: Q04DX002 (ip), vehicle: saline with Tween-80
[18] = dose: 100.0 mg/kg/injection, schedule: Q01DX001 (ip), vehicle: carboxymethylcellulose (CMC)
[19] = dose: 200.0 mg/kg/injection, schedule: Q01DX001 (ip), vehicle: carboxymethylcellulose (CMC)
[20] = dose: 400.0 mg/kg/injection, schedule: Q01DX001 (ip), vehicle: carboxymethylcellulose (CMC)
[21] = dose: 25.0 mg/kg/injection, schedule: Q01DX009 (ip), vehicle: saline with Tween-80
[22] = dose: 400.0 mg/kg/injection, schedule: Q01DX009 (ip), vehicle: saline with Tween-80
[23] = dose: 200.0 mg/kg/injection, schedule: Q01DX001 (ip), vehicle: saline
[24] = dose: 400.0 mg/kg/injection, schedule: Q01DX001 (ip), vehicle: saline
[25] = dose: 100.0 mg/kg/injection, schedule: Q01DX001 (ip), vehicle: saline

Measured: T/C

O=S1(=O)C(c2ccccc2)=Cc2cccn2-c2ccccc21
inactive: [1] 95 % of control | [2] 104 % of control | dose: 400.0 mg/kg/injection, schedule: Q04DX003 (ip), vehicle: Klucel (hydroxypropylcellulose) (HPC) 98 % of control

COc1cccc2cc([N+](=O)[O-])oc12
inactive: dose: 25.0 mg/kg/injection, schedule: Q01DX009 (ip), vehicle: Klucel (hydroxypropylcellulose) (HPC) 98 % of control | dose: 50.0 mg/kg/injection, schedule: Q01DX009 (ip), vehicle: Klucel (hydroxypropylcellulose) (HPC) 93 % of control | [3] 105 % of control | [4] 101 % of control | [5] 94 % of control | dose: 200.0 mg/kg/injection, schedule: Q04DX002 (ip), vehicle: Klucel (hydroxypropylcellulose) (HPC) 101 % of control

Cc1ccccc1C1(O)c2ccccc2-c2ccccc21
inactive: [6] 98 % of control | [7] 96 % of control | [8] 96 % of control

Cc1cc(S(=O)(=O)F)ccc1NC(=O)NCc1ccc([N+](=O)[O-])cc1
inactive: [4] 100 % of control | [9] 106 % of control

CCNCC(=O)O
inactive: [10] 96 % of control | [11] 101 % of control | [12] 104 % of control

COC(=O)c1cccc(OC)c1I
inactive: dose: 50.0 mg/kg/injection, schedule: Q04DX003 (ip), vehicle: Klucel (hydroxypropylcellulose) (HPC) 98 % of control | [1] 106 % of control | [2] 103 % of control

CC(C)(C)c1ccc(O)c([N+](=O)[O-])c1
inactive: dose: 25.0 mg/kg/injection, schedule: Q04DX002 (ip), vehicle: Klucel (hydroxypropylcellulose) (HPC) 86 % of control | [3] 86 % of control | [5] 102 % of control and 88 % of control

C=CCc1ccc(OC(=O)Nc2cccc(C)c2)c(OC)c1
inactive: [13] 98 % of control | [14] 112 % of control | [15] 99 % of control | [16] 101 % of control and 102 % of control | [17] 89 % of control

CC1(C)N=C(N)N=C(N)N1c1ccc(OCCOc2ccc(NC(=O)CBr)cc2)cc1
inactive: dose: 120.0 mg/kg/injection, schedule: Q01DX009 (ip), vehicle: saline 124 % of control | dose: 176.0 mg/kg/injection, schedule: Q01DX009 (ip), vehicle: saline 112 % of control | dose: 266.0 mg/kg/injection, schedule: Q01DX009 (ip), vehicle: saline 107 % of control | dose: 400.0 mg/kg/injection, schedule: Q01DX009 (ip), vehicle: saline 98 % of control

C[Si](C)(CCl)O[Si](C)(C)CCl
inactive: dose: 50.0 mg/kg/injection, schedule: Q01DX001 (ip), vehicle: carboxymethylcellulose (CMC) 113 % of control | [18] 97 % of control | [19] 106 % of control | [20] 97 % of control

O=C1OC(c2ccc([N+](=O)[O-])cc2)=N/C1=C\C=C\c1ccccc1
inactive: [4] 98 % of control | [9] 96 % of control | dose: 400.0 mg/kg/injection, schedule: Q01DX009 (ip), vehicle: Klucel (hydroxypropylcellulose) (HPC) 103 % of control

Clc1c(Cl)c(Cl)c([S][Pb]([c]2ccccc2)([c]2ccccc2)[c]2ccccc2)c(Cl)c1Cl
inactive: dose: 6.25 mg/kg/injection, schedule: Q01DX009 (ip), vehicle: saline with Tween-80 101 % of control | dose: 12.5 mg/kg/injection, schedule: Q01DX009 (ip), vehicle: saline with Tween-80 103 % of control | [21] 104 % of control and 88 % of control | dose: 25.0 mg/kg/injection, schedule: Q04DX002 (ip), vehicle: saline with Tween-80 96 % of control | dose: 50.0 mg/kg/injection, schedule: Q04DX002 (ip), vehicle: saline with Tween-80 99 % of control | [15] 86 % of control and 88 % of control

CCOC(=O)NC(=S)NN
inactive: dose: 100.0 mg/kg/injection, schedule: Q01DX009 (ip), vehicle: saline 105 % of control | dose: 200.0 mg/kg/injection, schedule: Q01DX009 (ip), vehicle: saline 110 % of control

Cc1ccc(NS(=O)(=O)c2ccc(Br)cc2)c(C)c1
inactive: [21] 98 % of control | [13] 96 % of control | [14] 96 % of control | [6] 98 % of control | [16] 98 % of control | [7] 91 % of control | [22] 101 % of control | [8] 93 % of control

CN1C(=O)C(C)(C)C(=O)C1(C)C
inactive: [23] 100 % of control | [24] 117 % of control

CC(C)=CCC(=O)NCC(CCN1CCCCC1)(c1cccc2ccccc12)C(C)C (stereo not given)
inactive: dose: 12.5 mg/kg/injection, schedule: Q04DX003 (ip), vehicle: saline with Tween-80 96 % of control | dose: 25.0 mg/kg/injection, schedule: Q04DX003 (ip), vehicle: saline with Tween-80 88 % of control | dose: 50.0 mg/kg/injection, schedule: Q01DX003 (ip), vehicle: saline with Tween-80 88 % of control | dose: 50.0 mg/kg/injection, schedule: Q04DX003 (ip), vehicle: saline with Tween-80 92 % of control | [4] 90 % of control | [9] 90 % of control

CC(C)(CO)N=Cc1ccc(Cl)cc1Cl
inactive: [25] 93 % of control | [23] 102 % of control | [24] 102 % of control

Cc1ccc(Cl)cc1NC(=O)Nc1cccc2c(O)cccc12
inactive: dose: 100.0 mg/kg/injection, schedule: Q01DX001 (ip), vehicle: saline with Tween-80 100 % of control | [14] 90 % of control and 92 % of control | [15] 94 % of control and 87 % of control | [6] 88 % of control | dose: 200.0 mg/kg/injection, schedule: Q01DX001 (ip), vehicle: saline with Tween-80 89 % of control | [16] 103 % of control and 90 % of control | [17] 97 % of control and 89 % of control | [7] 98 % of control | dose: 400.0 mg/kg/injection, schedule: Q01DX001 (ip), vehicle: saline with Tween-80 98 % of control | [22] 95 % of control | dose: 400.0 mg/kg/injection, schedule: Q04DX002 (ip), vehicle: saline with Tween-80 94 % of control and 95 % of control | [8] 101 % of control

CCS(=O)(=O)/C=C/c1cccnc1
inactive: [10] 96 % of control | [11] 100 % of control | [12] 107 % of control

Nc1ccc(CSc2ccccc2)cc1F
inactive: dose: 100.0 mg/kg/injection, schedule: Q01DX009 (ip), vehicle: saline + alcohol 94 % of control | dose: 200.0 mg/kg/injection, schedule: Q01DX009 (ip), vehicle: saline + alcohol 93 % of control | dose: 400.0 mg/kg/injection, schedule: Q01DX009 (ip), vehicle: saline + alcohol 86 % of control

COc1ccccc1NC(=O)NCCO
inactive: [18] 103 % of control | [19] 95 % of control | [20] 103 % of control

O=c1[nH]cc(CCOCc2ccccc2)c(=O)[nH]1
inactive: [25] 103 % of control | [23] 94 % of control | [24] 103 % of control
